{
  "source": "paper PMC10723152",
  "about": "(Proceedings of the National Academy of Sciences of the …, 2023)",
  "origin": "cited, not measured here",
  "tested_on": "cynomolgus macaques",
  "details": "adult male cynomolgus macaques, 2 Gy sublethal whole-body irradiation",
  "data": [
    {"substance": "recombinant hGH: recombinant human Growth Hormone, biologic compared from the authors' previous work", "values": [
      {"measurement": "hematopoietic recovery", "value": "enhanced hematopoietic recovery"}
    ]}
  ]
}
